Laboratory results reported in ChEMBL document CHEMBL1152299, “Indazole-based liver X receptor (LXR) modulators with maintained atherosclerotic lesion reduction activity but diminished stimulation of hepatic triglyceride synthesis” (J Med Chem, 2008).

Columns and labels:
[1] = Clearance in C57 mouse at 1 mg/kg, iv and 10 mg/kg, po; type: ADME, organism-based; details: in vivo
[2] = AUC (0 to infinity) in C57 mouse at 1 mg/kg, iv and 10 mg/kg, po; type: ADME, organism-based; details: plasma
[3] = Cmax in male C57 mice after 10 mg/kg oral dose; type: ADME, organism-based; design: dose 10 mg/kg, route oral; details: C57, mouse, in vivo
[4] = Half life in C57 mouse at 1 mg/kg, iv; type: ADME, organism-based; design: dose 1 mg/kg, route intravenous; details: in vivo
[5] = Terminal half life in C57 mouse at 10 mg/kg, po; type: ADME, organism-based; design: dose 10 mg/kg, route oral; details: in vivo, read-out: beta t1/2 (converted)
[6] = Volume of distribution at steady state in C57 mouse at 1 mg/kg, iv and 10 mg/kg, po; type: ADME, organism-based; details: in vivo, read-out: Vdss
[7] = Tmax in C57 mouse at 1 mg/kg, iv and 10 mg/kg, po; type: ADME, organism-based; details: in vivo
[8] = Bioavailability in C57 mouse at 1 mg/kg, iv and 10 mg/kg, po; type: ADME, organism-based; details: in vivo
HepG2 [9] = assay: Effect on SREBP1c gene expression in human HepG2 cells; type: functional, cell-based
THP-1 [10] = assay: Stimulation of [3H]cholesterol efflux in human THP1 foam cells loaded with ac-LDL relative to TO901317; type: functional
HepG2 [11] = assay: Effect on SREBP1c gene expression in human HepG2 cells relative to TO901317; type: functional
THP-1 [12] = assay: Stimulation of [3H]cholesterol efflux in human THP1 foam cells loaded with ac-LDL; type: functional, cell-based
HepG2 [13] = assay: Effect on triglyceride accumulation in human HepG2 cells relative to TO901317; type: functional
THP-1 [14] = assay: Effect on ABCA1 gene expression in human differentiated THP1 cells relative to TO901317; type: functional
[15] = biological target: T1, Oxysterols receptor LXR-alpha (Homo sapiens, UniProt Q13133)
[16] = biological target: T2, Oxysterols receptor LXR-beta (Homo sapiens, UniProt P55055)
T2 sequence (P55055 whole entry): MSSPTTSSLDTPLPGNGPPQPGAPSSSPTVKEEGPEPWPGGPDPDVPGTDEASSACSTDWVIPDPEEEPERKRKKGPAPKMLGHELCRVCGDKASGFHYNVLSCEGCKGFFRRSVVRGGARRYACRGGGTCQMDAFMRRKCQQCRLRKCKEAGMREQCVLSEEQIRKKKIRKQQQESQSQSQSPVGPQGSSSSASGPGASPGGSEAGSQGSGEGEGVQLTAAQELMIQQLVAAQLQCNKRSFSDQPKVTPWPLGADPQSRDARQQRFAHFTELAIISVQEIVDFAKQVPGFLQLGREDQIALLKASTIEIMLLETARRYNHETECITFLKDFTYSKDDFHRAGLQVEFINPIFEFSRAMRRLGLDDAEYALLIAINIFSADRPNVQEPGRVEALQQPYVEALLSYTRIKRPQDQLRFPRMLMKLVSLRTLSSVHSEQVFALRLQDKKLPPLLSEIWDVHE

[17] = biological target: T2, Oxysterols receptor LXR-beta; assay: Agonist activity at human recombinant LXRbeta ligand binding domain in human HuH7 cells co-transfected with fused Gal4-DBD by transactivation assay; type: cell-based, Huh-7
[18] = biological target: T1, Oxysterols receptor LXR-alpha; remark: listed apart in the source
THP-1 [19] = assay: Effect on ABCA1 gene expression in human differentiated THP1 cells; type: functional, cell-based
Mus musculus [20] = assay: Upregulation of ABCA1 gene expression in LDL receptor knockout C57BL/6 mouse duodenum at 10 mg/kg administered with Western diet; type: functional; details: route oral
Mus musculus [21] = assay: Increase in CYP7A1 gene expression in LDL receptor knockout C57BL/6 mouse liver at 10 mg/kg administered with Western diet; type: functional
HepG2 [22] = assay: Effect on triglyceride accumulation in human HepG2 cells; type: functional, cell-based
Mus musculus [23] = assay: Reduction in atherosclerotic lesion size in LDL receptor knockout C57BL/6 mouse thoracic aorta at 10 mg/kg administered with Western diet after 8 weeks by oil Red-O staining; type: functional; design: scale not given: the % may be the effect or the level left
Mus musculus [24] = assay: Decrease in total cholesterol level in LDL receptor knockout C57BL/6 mouse plasma at 10 mg/kg administered with Western diet after 8 weeks; type: functional; design: scale not given: the % may be the effect or the level left
Syrian golden hamster [25] = assay: Induction of FAS gene expression in golden Syrian hamster liver at 3 mg/kg administered with chow diet for 7 days measured after 2 hrs of final dose by real time PCR; type: functional, Mesocricetus auratus
Syrian golden hamster [26] = assay: Effect on triglyceride level in golden Syrian hamster plasma at 3 mg/kg administered with chow diet for 7 days measured after 2 hrs of final dose; type: functional, Mesocricetus auratus

EC50 (HepG2 [9]) | EC50 (THP-1 [12]) | EC50 [17] | EC50 (HepG2 [22]) | Compound | Efficacy (THP-1 [10]) | Efficacy (HepG2 [11]) | Efficacy (HepG2 [13]) | Efficacy (THP-1 [14]) | Activity (Mus musculus [23]) | Activity (Mus musculus [24]) | further results
– | – | 90 nM | – | O=C(O)Cc1ccc(CNc2cccc(-c3c(Cc4ccccc4)cnc4c(C(F)(F)F)cccc34)c2)cc1 | – | – | – | – | – | – | IC50 [15]: 8 nM; IC50 [16]: 2 nM
120 nM | 6 nM | – | 223 nM | O=C(O)Cc1ccc(COc2cccc(-c3c(Cc4ccccc4)cnc4c(C(F)(F)F)cccc34)c2)cc1 | 88% | 96% | 85% | 155% | 38% | 20% | fold change (FC) (Syrian golden hamster [25]): 4; Activity (Syrian golden hamster [26]): 25%

Continued, compound first:

Compound | EC50 (HepG2 [9]) | EC50 (THP-1 [12]) | EC50 [17] | EC50 (HepG2 [22]) | Efficacy (THP-1 [10]) | Efficacy (HepG2 [11]) | Efficacy (HepG2 [13]) | Efficacy (THP-1 [14]) | Activity (Mus musculus [23]) | Activity (Mus musculus [24]) | further results
FC(F)(F)c1cccc2c(-c3ccccc3)n(Cc3ccccc3)nc12 | – | – | – | – | – | – | – | – | – | – | clearance [1]: 81 mL/min/kg; AUC(0-inf) [2]: 321 ng·h/mL; Cmax [3]: 124 ng/mL; half-life [4]: 1.9 h; half-life [5]: 2.2 h; Vd [6]: 5.2 L/kg; Tmax [7]: 0.25 h; bioavailability [8]: 16%
O=S(=O)(c1ccccc1)N(CC(F)(F)F)c1ccc(C(O)(C(F)(F)F)C(F)(F)F)cc1 [T091317] | 61 nM | 3 nM | – | – | 100% | 100% | 100% | 100% | – | – | –
O=C(O)Cc1cccc(OCCCN(Cc2cccc(C(F)(F)F)c2Cl)CC(c2ccccc2)c2ccccc2)c1 | 210 nM | 31 nM | 310 nM | 2000 nM | 84% | 137% | 45% | 178% | 40% | 17% | EC50 [18]: 660 nM; EC50 (THP-1 [19]): 434 nM; fold change (FC) (Mus musculus [20]): 6.9; fold change (FC) (Mus musculus [21]): 1.9
